Our source for the DC50 values is patent US20260200939A1, “MOLECULAR GLUE DEGRADER COMPOUNDS AND USES THEREOF” (Novartis AG, priority 2022, published 2026).

For one experiment, the target named is T1, BRD4 long (Homo sapiens, UniProt O60885).
T1 construct: endogenous in cells; host or cells: HEK293T
The experiment is described as follows: BRD4 (long) degradation assay, Western blotting. Format: cell-based. Here is the method: (§1) C33A cells were purchased from American Type Culture Collection (ATCC) and were cultured in Dulbecco's Modified Eagle Medium (DMEM) containing 10% (v/v) fetal bovine serum (FBS) and maintained at 37° C. with 5% CO2. 22RV1 cells were purchased from the ATCC and were cultured in RPMI-1640 Medium containing 10% (v/v) FBS and maintained at 37° C. with 5% CO2. HEK293T cells were obtained from the UC Berkeley Cell Culture Facility and were cultured in DMEM containing 10% (v/v) FBS and maintained at 37° C. with 5% CO2. K562 cells were obtained from the UC Berkeley Cell Culture Facility and were cultured in Iscove's Modified Dulbecco's Medium (IMDM) containing 10% (v/v) FBS and maintained at 37° C. with 5% CO2. MV-4-11 cells were obtained from the ATCC and were cultured in IMDM containing 10% (v/v) FBS and maintained at 37° C. with 5% CO2. A549 cells were obtained from the ATCC and were cultured in F-12K Medium containing 10% (v/v) FBS and maintained at 37° C. with 5% CO2. Mino cells were obtained from the ATCC and were cultured in RPMI-1640 Medium containing 10% (v/v) FBS and maintained at 37° C. with 5% CO2. LNCaP cells were obtained from the ATCC and were cultured in RPMI-1640 Medium containing 10% (v/v) FBS and maintained at 37° C. with 5% CO2. Unless otherwise specified, all cell culture materials were purchased from Gibco. It is not known whether HEK293T cells are from male or female origin.
(§2) Cells were washed twice with cold PBS, scraped, and pelleted by centrifugation (700 g, 5 min, 4° C.). Pellets were resuspended in PBS, sonicated, clarified by centrifugation (12,000 g, 10 min, 4° C.), and lysate was transferred to new low-adhesion microcentrifuge tubes. Proteome concentrations were determined using BCA assay and lysate was diluted to appropriate working concentrations.
(§3) Proteins were resolved by SDS/PAGE and transferred to nitrocellulose membranes using the Trans-Blot Turbo transfer system (Bio-Rad). Membranes were blocked with 5% BSA in Tris-buffered saline containing Tween 20 (TBS-T) solution for 30 min at RT, washed in TBS-T, and probed with primary antibody diluted in recommended diluent per manufacturer overnight at 4° C. After 3 washes with TBS-T, the membranes were incubated in the dark with IR680- or IR800-conjugated secondary antibodies at 1:10,000 dilution in 5% BSA in TBS-T at RT for 1 h. After 3 additional washes with TBST, blots were visualized using an Odyssey Li-Cor fluorescent scanner. The membranes were stripped using ReBlot Plus Strong Antibody Stripping Solution (EMD Millipore) when additional primary antibody incubations were performed. Antibodies used in this study were CDK4 (Abcam ab108357), Vinculin (Abcam ab129002), GAPDH (Cell Signaling Technology 14C10), RNF126 (Santa Cruz Biotechnology sc-376005), BRD4 (Abcam ab128874), Beta Actin (Cell Signaling Technology 13E5), PDE5 (Abcam ab259945), AR-V7 (Abcam ab273500), c-Abl (Santa Cruz Biotechnology sc-23), SMARCA2 (Abcam ab240648), LRRK2 (Abcam ab133474), BTK (Cell Signaling Technology D3H5), Androgen Receptor (Abcam ab133273).
(In general: In western blotting, separated proteins are transferred to a membrane and probed.)

The target in the next experiment is T2, BRD4 short (Homo sapiens, UniProt O60885).
T2 construct: endogenous in cells; host or cells: HEK293T
Kind of experiment: BRD4 (short) degradation assay, Western blotting. Format: cell-based. As to the method:
as §1, §2, §3

[1] abbreviates: first value of cell (long/short).
Where [2] appears, read: second value of cell (long/short).
The mark [3] stands for this setting: first value of cell, range with lower bound in nM and upper bound in μM.
Where [4] appears, read: second value of cell, range with lower bound in nM and upper bound in μM.

What is called DC50 is the concentration giving 50% degradation. Read a low DC50 as degradation at low concentration. On to `COc1ccc(C(=O)/C=C/C(=O)N2CCN(C(=O)C[C@@H]3N=C(c4ccc(Cl)cc4)c4c(sc(C)c4C)-n4c(C)nnc43)C[C@H]2C)cc1` [Compound 217, (E)-1-((R)-4-(2-((S)-4-(4-chlorophenyl)-2,3,9-trimethyl-6H-thieno[3,2-f][1,2,4]triazolo[4,3-a][1,4]diazepin-6-yl)acetyl)-2-methylpiperazin-1-yl)-4-(4-methoxyphenyl)but-2-ene-1,4-dione], for which the DC50 at BRD4 long (setting [1]) and on BRD4 short (setting [2]) was less than 10 nM throughout.
With `COc1ccc(C(=O)/C=C/C(=O)N2CCN(C(=O)C[C@@H]3N=C(c4ccc(Cl)cc4)c4c(sc(C)c4C)-n4c(C)nnc43)[C@H](C)C2)cc1` [Compound 218, (E)-1-((R)-4-(2-((S)-4-(4-chlorophenyl)-2,3,9-trimethyl-6H-thieno[3,2-f][1,2,4]triazolo[4,3-a][1,4]diazepin-6-yl)acetyl)-3-methylpiperazin-1-yl)-4-(4-methoxyphenyl)but-2-ene-1,4-dione], the DC50 at BRD4 long (setting [1]) and at BRD4 short (setting [2]) was less than 10 nM in each case.
Regarding `COc1ccc(C(=O)/C=C/C(=O)N2CCCN(C(=O)C[C@@H]3N=C(c4ccc(Cl)cc4)c4c(sc(C)c4C)-n4c(C)nnc43)CC2)cc1` [Compound 219, (S,E)-1-(4-(2-(4-(4-chlorophenyl)-2,3,9-trimethyl-6H-thieno[3,2-f][1,2,4]triazolo[4,3-a][1,4]diazepin-6-yl)acetyl)-1,4-diazepan-1-yl)-4-(4-methoxyphenyl)but-2-ene-1,4-dione], the DC50 on BRD4 long (setting [3]) and on BRD4 short (setting [4]) was 100 to 1000 nM each time.
Consider `COc1ccc(C(=O)/C=C/C(=O)N2CCN(C(=O)C[C@@H]3N=C(c4ccc(Cl)cc4)c4c(sc(C)c4C)-n4c(C)nnc43)CC23CC3)cc1` [Compound 221, (S,E)-1-(7-(2-(4-(4-chlorophenyl)-2,3,9-trimethyl-6H-thieno[3,2-f][1,2,4]triazolo[4,3-a][1,4]diazepin-6-yl)acetyl)-4,7-diazaspiro[2.5]octan-4-yl)-4-(4-methoxyphenyl)but-2-ene-1,4-dione], for which the 50% degradation concentration (DC50) at BRD4 long (setting [1]) and at BRD4 short (setting [2]) was 10 to 100 nM in each case.
Consider `COc1ccc(C(=O)/C=C/C(=O)NC2CC(NC(=O)C[C@@H]3N=C(c4ccc(Cl)cc4)c4c(sc(C)c4C)-n4c(C)nnc43)C2)cc1` (stereo partly drawn) [Compound 222], for which the 50% degradation concentration (DC50) on BRD4 long (setting [1]) and on BRD4 short (setting [2]) was 1 to 10 nM in each case.
`COc1ccc(C(=O)/C=C/C(=O)N[C@H]2C[C@H](NC(=O)C[C@@H]3N=C(c4ccc(Cl)cc4)c4c(sc(C)c4C)-n4c(C)nnc43)C2)cc1` [Compound 223, (E)-N-((1S,3r)-3-(2-((S)-4-(4-chlorophenyl)-2,3,9-trimethyl-6H-thieno[3,2-f][1,2,4]triazolo[4,3-a][1,4]diazepin-6-yl)acetamido)cyclobutyl)-4-(4-methoxyphenyl)-4-oxobut-2-enamide]: the DC50 at BRD4 long (setting [1]) amounted to 8 nM; on BRD4 short (setting [2]), 12 nM.
As to `COc1ccc(C(=O)/C=C/C(=O)N2CCC3(CCN(C(=O)C[C@@H]4N=C(c5ccc(Cl)cc5)c5c(sc(C)c5C)-n5c(C)nnc54)C3)C2)cc1` (stereo partly drawn) [Compound 224, (E)-1-(7-(2-((S)-4-(4-chlorophenyl)-2,3,9-trimethyl-6H-thieno[3,2-f][1,2,4]triazolo[4,3-a][1,4]diazepin-6-yl)acetyl)-2,7-diazaspiro[4.4]nonan-2-yl)-4-(4-methoxyphenyl)but-2-ene-1,4-dione], the DC50 on BRD4 long (setting [1]) and on BRD4 short (setting [2]) was 1 to 10 nM each time.
Consider `COc1ccc(C(=O)/C=C/C(=O)N2CC3CCN(C(=O)C[C@@H]4N=C(c5ccc(Cl)cc5)c5c(sc(C)c5C)-n5c(C)nnc54)CC3C2)cc1` (stereo partly drawn) [Compound 225, (E)-1-(5-(2-((S)-4-(4-chlorophenyl)-2,3,9-trimethyl-6H-thieno[3,2-f][1,2,4]triazolo[4,3-a][1,4]diazepin-6-yl)acetyl)octahydro-2H-pyrrolo[3,4-c]pyridin-2-yl)-4-(4-methoxyphenyl)but-2-ene-1,4-dione], for which the results for the DC50 at BRD4 long (setting [1]) and on BRD4 short (setting [4]) were less than 10 nM and 100 to 1000 nM, respectively.
Turning to `COc1ccc(C(=O)/C=C/C(=O)N2CC3CCC2CN3C(=O)C[C@@H]2N=C(c3ccc(Cl)cc3)c3c(sc(C)c3C)-n3c(C)nnc32)cc1` (stereo partly drawn) [Compound 226, (E)-1-(5-(2-((S)-4-(4-chlorophenyl)-2,3,9-trimethyl-6H-thieno[3,2-f][1,2,4]triazolo[4,3-a][1,4]diazepin-6-yl)acetyl)-2,5-diazabicyclo[2.2.2]octan-2-yl)-4-(4-methoxyphenyl)but-2-ene-1,4-dione], the 50% degradation concentration (DC50) on BRD4 long (setting [1]) and on BRD4 short (setting [2]) was 10 to 100 nM throughout.
Turning to `COc1ccc(C(=O)/C=C/C(=O)N2CC3(CCN(C(=O)C[C@@H]4N=C(c5ccc(Cl)cc5)c5c(sc(C)c5C)-n5c(C)nnc54)CC3)C2)cc1` [Compound 227, (S,E)-1-(7-(2-(4-(4-chlorophenyl)-2,3,9-trimethyl-6H-thieno[3,2-f][1,2,4]triazolo[4,3-a][1,4]diazepin-6-yl)acetyl)-2,7-diazaspiro[3.5]nonan-2-yl)-4-(4-methoxyphenyl)but-2-ene-1,4-dione], the DC50 on BRD4 long (setting [1]) and at BRD4 short (setting [2]) was 10 to 100 nM in each case.
Turning to `COc1ccc(C(=O)/C=C/C(=O)N2CC3CCC(C2)N(C(=O)C[C@@H]2N=C(c4ccc(Cl)cc4)c4c(sc(C)c4C)-n4c(C)nnc42)C3)cc1` (stereo partly drawn) [Compound 228, (E)-1-(6-(2-((S)-4-(4-chlorophenyl)-2,3,9-trimethyl-6H-thieno[3,2-f][1,2,4]triazolo[4,3-a][1,4]diazepin-6-yl)acetyl)-3,6-diazabicyclo[3.2.2]nonan-3-yl)-4-(4-methoxyphenyl)but-2-ene-1,4-dione], the DC50 at BRD4 long (setting [1]) and on BRD4 short (setting [2]) was 10 to 100 nM throughout.
Turning to `COc1ccc(C(=O)/C=C/C(=O)N2CC3CC(C2)CN(C(=O)C[C@@H]2N=C(c4ccc(Cl)cc4)c4c(sc(C)c4C)-n4c(C)nnc42)C3)cc1` [Compound 229, (E)-1-(7-(2-((S)-4-(4-chlorophenyl)-2,3,9-trimethyl-6H-thieno[3,2-f][1,2,4]triazolo[4,3-a][1,4]diazepin-6-yl)acetyl)-3,7-diazabicyclo[3.3.1]nonan-3-yl)-4-(4-methoxyphenyl)but-2-ene-1,4-dione], the DC50 at BRD4 long (setting [3]) and on BRD4 short (setting [4]) was 100 to 1000 nM in each case.
For the compound `COc1ccc(C(=O)/C=C/C(=O)N2CC3CN(C(=O)C[C@@H]4N=C(c5ccc(Cl)cc5)c5c(sc(C)c5C)-n5c(C)nnc54)CC3C2)cc1` (stereo partly drawn) [Compound 230, (E)-1-(5-(2-((S)-4-(4-chlorophenyl)-2,3,9-trimethyl-6H-thieno[3,2-f][1,2,4]triazolo[4,3-a][1,4]diazepin-6-yl)acetyl)hexahydropyrrolo[3,4-c]pyrrol-2(1H)-yl)-4-(4-methoxyphenyl)but-2-ene-1,4-dione], the DC50 on BRD4 long (setting [1]) and at BRD4 short (setting [2]) was 10 to 100 nM throughout.
As to `COc1ccc(C(=O)/C=C/C(=O)N2CCC3(CC2)CN(C(=O)C[C@@H]2N=C(c4ccc(Cl)cc4)c4c(sc(C)c4C)-n4c(C)nnc42)CCO3)cc1` [Compound 231, (S,E)-1-(4-(2-(4-(4-chlorophenyl)-2,3,9-trimethyl-6H-thieno[3,2-f][1,2,4]triazolo[4,3-a][1,4]diazepin-6-yl)acetyl)-1-oxa-4,9-diazaspiro[5.5]undecan-9-yl)-4-(4-methoxyphenyl)but-2-ene-1,4-dione], the results for the 50% degradation concentration (DC50) on BRD4 long (setting [1]) and at BRD4 short (setting [2]) were 10 to 100 nM and 1 to 10 nM, respectively.
For `COc1ccc(C(=O)/C=C\C(=O)N2CCN(C(=O)C[C@@H]3N=C(c4ccc(Cl)cc4)c4c(sc(C)c4C)-n4c(C)nnc43)CC2)cc1` [Compound 232, (S,Z)-1-(4-(2-(4-(4-chlorophenyl)-2,3,9-trimethyl-6H-thieno[3,2-f][1,2,4]triazolo[4,3-a][1,4]diazepin-6-yl)acetyl)piperazin-1-yl)-4-(4-methoxyphenyl)but-2-ene-1,4-dione] the same measures were 10 to 100 nM and 10 to 100 nM.
